Data reported in paper PMC10384874, “The Expression of Antibacterial Peptide Turgencin A in Pichia pastoris and an Analysis of Its Antibacterial Activity” (Molecules, 2023).
No end group written: not given here.

Key:
[1] = test system: S. aureus ATCC25923; experiment: Agar well diffusion assay; type: cell-based, Staphylococcus aureus; conditions: 9 μg·mL^−1 rTurgencin A fermentation supernatant, 50 μL per well, against 50 μg·mL^−1 gentamicin
Procedure: (§1) The test bacterial strain was seeded into an LB liquid medium and cultured at 37 °C until the OD600 value reached 1. In total, 50 μL of bacteria was mixed with the 15 mL molten LB medium (1% peptone, 1% NaCl, and 0.5% yeast extract) at 25 °C and allowed to solidify. Holes were punched with sterile gun heads. Subsequently, 50 μL of the fermentation supernatant was added to the holes. Gentamicin (Gen) at 50 µg·mL^−1 was used as the positive control. The antibacterial peptide SC3, which was not active in the laboratory, was used as the negative control.

[2] = Pork preservation experiment, flesh color; conditions: pork treated with rTurgencin A at 10 μg·mL^−1, stored at 4 °C; days 0, 2, 4, 6; control deteriorated on day 4
Procedure: (§2) The fermentation supernatant was passed through a 0.22 μm membrane filter and transferred to a beaker. Fresh pork hind leg meat was cut into 5 g pieces and placed in the above solution, soaked for 1 min in each direction, shaken so that the surface of the meat was fully exposed to the solution, removed, placed on cling film to drain, left for 5 min at room temperature, turned over, and left for another 5 min to remove excess water so that the meat neither dripped nor was too dry. The meat was then wrapped in plastic and stored in a refrigerator at 4 °C for seven days. During this period, the pork samples were tested for colony counts every 48 h, according to the method of GB 4789-2022 [42]. The colony count is expressed by colony-forming units (CFU), and a common logarithm determines the total number of colonies. SC3 served as the negative control.

[3] = test system: L. monocytogenes ATCC21633; experiment: Agar well diffusion assay; type: cell-based, Listeria monocytogenes; conditions: 9 μg·mL^−1 rTurgencin A fermentation supernatant, 50 μL per well, against 50 μg·mL^−1 gentamicin
Procedure: as §1

[4] = test system: S. aureus ATCC25923; experiment: Stability in salt solutions, read out by agar well diffusion assay; type: physicochemical, Staphylococcus aureus; conditions: 5 mM MgCl2, 50 mM MgCl2, 50 mM KCl and 150 mM KCl; 13.7 μg·mL^−1; inhibition circle against S. aureus ATCC25923; n = 3
Procedure: as §1
(§3) The rTurgencin A freeze-dried fermentation supernatant was dissolved in different buffers. The contents were all 200 mg·mL^−1. Therefore, the concentrations of rTurgencin A in this experiment were all 13.7 μg·mL^−1.
The rTurgencin A freeze-dried fermentation supernatant was dissolved in 5 mM MgCl2, 50 mM MgCl2, 50 mM KCl, and 150 mM KCl, respectively. Then, the samples were subjected to an agar well diffusion assay. Twelve hours later, the inhibition circle was observed. The negative control was the different salt solutions.

[5] = test system: S. aureus ATCC25923; experiment: Protease stability, read out by agar well diffusion assay; type: in vitro ADME, Staphylococcus aureus; conditions: 2 h, 13.7 μg·mL^−1, inhibition circle against S. aureus ATCC25923, n = 3
Procedure: as §1, §3
The rTurgencin A freeze-dried fermentation supernatant was dissolved in buffers of a glycine solution at a pH of 2, a PBS solution at a pH of 6, a Tris-HCl solution at a pH of 7, and a Tris-HCl solution at a pH of 8. The final concentrations of the buffer solution were all 100 mM. Pepsin was added to the solution at a pH of 2, papain at a pH of 6, proteinase K at a pH of 7, and trypsin at a pH of 8. The protease concentrations were all 1 mg·mL^−1. The mixtures of 0.24 U of different protease solutions and rTurgencin A were reacted at 37 °C for 2 h. The samples were then subjected to an agar well diffusion assay. Twelve hours later, the inhibition circle was observed. The negative control was different protease solutions.

[6] = test system: Salmonella spp. ATCC10467; experiment: Minimum inhibitory concentration (MIC) determination; type: cell-based; conditions: Salmonella spp. (ATCC 10467); 96-well plate, LB, fermentation supernatant diluted to 1-6 μg·mL^−1; lowest peptide concentration with no bacterial growth; n = 3
Procedure: (§4) A single colony of the tested bacteria was picked to LB liquid medium and incubated at 37 °C until the OD600 reached about 1. This test bacteria solution was diluted 1000 times. The fermentation supernatant was serially diluted in a 96-well plate using replacement buffer to 1, 2, 3, 4, 5, and 6 μg·mL^−1 concentrations. Then, 20 μL of the diluted peptide and 100 μL of the test bacterium were added to each well. The negative control and positive control were […], respectively. The MIC value was defined as the lowest peptide concentration associated with no bacterial growth. In this study, the MIC values of Turgencin A were determined against S. aureus ATCC25923, Salmonella spp. ATCC10467, E. coli ATCC10305, E. Coli O157 ATCC35150, L. monocytogenes ATCC21633, and B. subtilis ATCC6633.

[7] = test system: E. coli ATCC10305; experiment: as above; type: cell-based, Escherichia coli; conditions: E. coli (ATCC 10305); 96-well plate, LB, fermentation supernatant diluted to 1-6 μg·mL^−1; lowest peptide concentration with no bacterial growth; n = 3
Procedure: as §4

[8] = test system: L. monocytogenes ATCC21633; experiment: as above; type: cell-based, Listeria monocytogenes; conditions: L. monocytogenes (ATCC 21633); 96-well plate, LB, fermentation supernatant diluted to 1-6 μg·mL^−1; lowest peptide concentration with no bacterial growth; n = 3
Procedure: as §4

[9] = test system: E. coli O157 ATCC35150; experiment: as above; type: cell-based, Escherichia coli O157; conditions: E. coli O157 (ATCC 35150); 96-well plate, LB, fermentation supernatant diluted to 1-6 μg·mL^−1; lowest peptide concentration with no bacterial growth; n = 3
Procedure: as §4

[10] = test system: Gram-positive and Gram-negative bacteria; experiment: Agar well diffusion assay, inhibition profiling of six strains; type: cell-based; conditions: fermentation supernatant, 9 μg·mL^−1 rTurgencin A; B. subtilis, S. aureus, L. monocytogenes, Salmonella spp., E. coli O157, E. coli
Procedure: as §1

[11] = test system: S. aureus ATCC25923; experiment: Minimum inhibitory concentration (MIC) determination; type: cell-based, Staphylococcus aureus; conditions: S. aureus (ATCC 25923); 96-well plate, LB, fermentation supernatant diluted to 1-6 μg·mL^−1; lowest peptide concentration with no bacterial growth; n = 3
Procedure: as §4

[12] = test system: S. aureus ATCC25923; experiment: pH stability, read out by agar well diffusion assay; type: physicochemical, Staphylococcus aureus; conditions: 13.7 μg·mL^−1; 100 mM buffers pH 2, 4, 6, 8, 10; 37 °C, 4 h; inhibition circle against S. aureus ATCC25923 after 12 h; n = 3
Procedure: as §1, §3
The rTurgencin A freeze-dried fermentation supernatant was dissolved in a glycine solution at a pH of 2, a sodium acetate solution at a pH of 4, a Tris-HCl solution at a pH of 6, a Tris-HCl solution at a pH of 8, and a glycine solution at a pH of 10. The final concentrations of the buffer solution were all 100 mM. Then, the samples were treated at 37 °C for 4 h and subjected to the agar well diffusion assay. Twelve hours later, the inhibition circle was observed. The negative control was a buffer solution of different pHs.

[13] = test system: B. subtilis ATCC6633; experiment: Minimum inhibitory concentration (MIC) determination; type: cell-based, Bacillus subtilis; conditions: B. subtilis (ATCC 6633); 96-well plate, LB, fermentation supernatant diluted to 1-6 μg·mL^−1; lowest peptide concentration with no bacterial growth; n = 3
Procedure: as §4

[14] = Antibacterial activity of the nickel column purified product; type: cell-based; conditions: nickel column purified product after dialysis of the replacement solution
Procedure: For the affinity purification with a nickel column, the Ni NTA Beads 6FF filler (Smart-Lifesciences, Changzhou, China) was added to the column, and the filler was rinsed twice with distilled water to remove ethanol, followed by two rinses with binding buffer (50 mM Tris-HCl pH = 7.9, 500 mM NaCl, and 10 mM Imidazole). The fermentation supernatant was treated with a 0.45 μm membrane filter, added to the nickel column, and combined with filler for 1 h in a low-speed shaker at 4 °C. The flow solution was collected and rinsed with binding buffer (50 mM Tris-HCl pH = 7.9, 500 mM NaCl, and 10 mM Imidazole) three times to wash off unbound proteins. Elution buffer (50 mM Tris-HCl pH = 7.9, 500 mM NaCl, and 1 M imidazole) was added and the eluent of the target protein was collected. Finally, the eluent was dialyzed in 0.01 M PBS for 12 h at a low temperature.

[15] = test system: S. aureus ATCC25923; experiment: Temperature stability, read out by agar well diffusion assay; type: physicochemical, Staphylococcus aureus; conditions: 13.7 μg·mL^−1 in 50 mM pH 7.4 Tris-HCl, inhibition circle against S. aureus ATCC25923 after 12 h, n = 3
Procedure: as §1, §3
The rTurgencin A freeze-dried fermentation supernatant was dissolved in a 50 mM pH 7.4 Tris-HCl solution and then treated at 4 °C, 25 °C, 37 °C, 65 °C, and 90 °C for 1 h. The samples were subjected to an agar well diffusion assay. Twelve hours later, the inhibition circle was observed. The negative control was a 50 mM pH 7.4 Tris-HCl solution after treatment for 1 h at the same temperature.

[16] = test system: S. aureus ATCC25923; experiment: Total nucleotide leakage; type: cell-based, Staphylococcus aureus; conditions: positive control 0.1% Triton X-100, 4 h
Procedure: The total nucleotide leakage associated with the peptide activity was analyzed according to the protocol described by Shwaiki et al.. We detected the total nucleotide leakage of the effect of Turgencin A on the cell membrane of S. aureus ATCC25923. The OD of each concentration was measured at 260 nm after four hours of contact reaction. The positive and negative controls were 0.1% Triton X-100 and water, respectively.

[17] = test system: total food spoilage bacteria in pork; experiment: Pork preservation experiment, total number of bacteria; conditions: pork treated with rTurgencin A at 10 μg·mL^−1, stored at 4 °C; days 0, 1, 3, 5; control group increasing
Procedure: as §2, with “The meat was then wrapped in plastic and stored in a refrigerator at 4 °C for seven days. During this period, the pork samples were tested for colony counts every 48 h, according to the method of GB 4789-2022 [42].” left out

For “GPKTKAACKMACKLATCGKKPGGWKCKLCELGCDAV (disulfide (positions not given here)) [rTurgencin A, His-tagged recombinant Turgencin A expressed in Pichia pastoris; tested as yeast fermentation supernatant, concentration by ELISA]”, the “inhibition circle diameter compared with gentamicin” value [1] was “more significant than 50 μg·mL^−1 gentamicin”, the “color of the pork flesh” value [2] was “still bright on the fourth day” and the “inhibition circle diameter compared with gentamicin” value [3] was “more significant than 50 μg·mL^−1 gentamicin”. For the same sequence, the “antibacterial activity in salt solutions” value [4] was “not affected”, the stability in papain ([5]; papain 1 mg·mL^−1 (0.24 U), 100 mM PBS pH 6, 37 °C) was “good stability” and the “antibacterial activity remaining in the presence of pepsin” value ([5]; pepsin 1 mg·mL^−1 (0.24 U), 100 mM glycine pH 2, 37 °C) was 70%. For the same sequence, the stability in k-protease ([5]; proteinase K 1 mg·mL^−1 (0.24 U), 100 mM Tris-HCl pH 7, 37 °C) was “good stability”, the stability in trypsin ([5]; trypsin 1 mg·mL^−1 (0.24 U), 100 mM Tris-HCl pH 8, 37 °C) was “good stability” and the MIC [6] was 4 µg/mL. For the same sequence, the MIC [7] was 5 µg/mL, the MIC [8] was 3 µg/mL and the MIC [9] was 5 µg/mL. For the same sequence, the “antibacterial activity (inhibition profiling)” value [10] was “provided antibacterial activity against Gram-positive and Gram-negative bacteria”, the MIC [11] was 3 µg/mL and the “reduction in inhibitory action at low pHs” value [12] was 40%. The “stability at neutral and high pH levels” value [12] was “good stability”, the MIC [13] was 2 µg/mL and the “antibacterial activity of the purified product” value [14] was “deficient antibacterial activity”. The “stability at low and room temperatures” value ([15]; 4 °C, 25 °C and 37 °C for 1 h) was “good stability”, the “diameter of the inhibition circle as % of the maximum inhibition circle diameter” value ([15]; 90 °C for 1 h) was 55% and the “total nucleotide leakage relative to the positive control” value ([16]; 1 × MIC) was 34.3%. For the same sequence, the “total nucleotide leakage relative to the positive control” value ([16]; 2 × MIC) was 77.3%, the “total nucleotide leakage relative to the positive control” value ([16]; 3 × MIC) was 131.5% and the “bacterial colonies in pork over storage days” value [17] was “showed a decreasing trend with an increase in days”.
